From patent US12295930B2, “Inducing proliferation of cardiomyocytes and therapeutic uses related thereto” (Emory University, priority 2018, dated 2025)

Experiments:
adult murine heart = test: Transthoracic echocardiography after T3/β1-adrenergic receptor blocker therapy; type: in vivo, mouse; conditions: for Ejection fraction / FW diastole / FW systole / Fractional shortening / IVS diastole / IVS systole / LV end-diastolic dimension / LV end-systolic dimension / LV mass: adult 6-month-old mice, metoprolol 6 μg/g daily i.p. 19 days and/or T3 2 ng/g i.p. 5 daily injections, 2 weeks after cessation
Experimental: Approximately 6-month-old mice were used. […] On day-14 of this therapy, mice were additionally given 5 daily injections of T3 (2 ng/g, i.p.) or vehicle. At 2 and 4 weeks after the cessation of T3/β1-adrenergic receptor blocker mono- or combination therapy, the body weights of these mice were measured as well as their cardiac dimensions and function using transthoracic echocardiography.
Experiments were performed to determine whether reversal of cell cycle block using β1-blockade coupled with acute T3 treatment may be sufficient to expand the cardiomyocyte endowment of the adult murine heart. […] Two weeks after cessation of these therapies LV dimensions and contractility were analyzed by echocardiography as well as ventricular cardiomyocyte numbers.

[1] = tested on: ventricular cardiomyocytes; test: Ventricular cardiomyocyte numbers after T3/metoprolol therapy in adult mice; type: in vivo, mouse; conditions: adult 6-month-old mice; metoprolol 6 μg/g daily i.p. 19 days and/or T3 2 ng/g i.p. 5 daily injections; 2 weeks after cessation
Source text: Digestion efficiencies were ˜98%. Cardiomyocytes in these cell suspensions, identified by their size and by rod shape, were counted using a hemocytometer. […]

cyclins D1, A2 and B1 = test: Acute in vivo T3 challenge: cyclin expression by immunoblotting; parameters: species or system mouse
Experimental: (§1) T3 was administered, intraperitoneally, to each mouse at the dose indicated. Vehicle was administered by the same route and animals thus treated served as controls. Phosphate buffered saline (PBS) was the vehicle for T3, and soybean oil (Sigma, S7381) was the vehicle for 4-hydroxytamoxifen. […] P7 and older mice were first anesthetized with 5% isoflurane and then hearts were harvested for further processing. Hearts were also collected at 12, 24 and 40 h after T3 or vehicle treatment and ventricular cardiomyocytes were prepared from the apex and base for immunoblotting, RT-qPCR or immunocytochemistry. Hearts were also collected at various ages after birth for immunoblotting, immunocytochemistry, immunohistochemistry and cardiomyocyte number estimation.
An acute in vivo T3 challenge was used to identify post-neonatal LV cardiomyocytes that retain proliferative capacity. Increases in myocardial cell cycle-promoting cyclins was explored as a surrogate for identifying cardiomyocytes that are able to enter the cell cycle.

LV cardiomyocytes [2] = test: Immunocytochemistry for S phase (EdU) and mitosis (pH3) after in vivo T3; parameters: species or system mouse
Experimental: as §1, with “4-hydroxytamoxifen. DUSP5 or β1-adrenergic receptor-specific siRNA or scrambled siRNA (control) was administered using in vivo-jetPEI®, (VWR, 89129-960).” for “4-hydroxytamoxifen.”
Experiments were performed to determine whether T3-stimulated cell cycle entry in LV apical cardiomyocytes ends in mitosis and cell replication.

[3] = tested on: ventricular cardiomyocytes; test: Ventricular cardiomyocyte count in early post-neonatal mice after T3; type: in vivo, mouse
Experimental: To determine the effect of T3 on the ventricular cardiomyocyte population in early post-neonatal mice, T3 daily (i. p.), was administered from P7 to P9. At P12, hearts were enzymatically disaggregated and cell suspensions created from the cardiac ventricles. Digestion efficiencies were ˜98%. Cardiomyocytes in these cell suspensions, identified by their size and by rod shape, were counted using a hemocytometer. T3 increased ventricular cardiomyocyte numbers by ˜18% (FIG. 2D), which indicates an average replication rate of 3.6%/day between P7 and P12.

[4] = tested on: IGF-1/IGF-1R, MEK1/2, ERK1/2; test: T3 proliferative signaling in P8 LV apical and basal cardiomyocytes (immunoblotting); type: in vivo, mouse
Experimental: as §1, with “4-hydroxytamoxifen. DUSP5 or β1-adrenergic receptor-specific siRNA or scrambled siRNA (control) was administered using in vivo-jetPEI®, (VWR, 89129-960).” for “4-hydroxytamoxifen.”
Proliferative signaling by growth factors involves Ras/Raf/mitogen-activated protein kinase (MAPK) kinase (MEK)/extracellular signal-regulated kinase (ERK) signaling. MEK1/2 activate ERK1/2 by phosphorylating T202 and Y204, which is required for ERK1/2 translocation to the nucleus. Sustained ERK1/2 phosphorylation in the nucleus activates multiple transcription factors ultimately resulting in effector protein synthesis and cell proliferation. A single dose of T3 was administered to P8 mice, and cardiomyocytes were isolated from the LV apex or base either immediately after T3 administration (0 h) or after 24 h. […] However, the fraction of nuclear ERK1/2 that remained phosphorylated at 24 h post-T3 treatment was ˜70% lower in LV basal cardiomyocytes (FIG. 4A).

LV cardiomyocytes [5] = conditions: T3 daily over 3 days (P7-P9); same mouse heart
Source text: To determine if LV apical cardiomyocytes undergo cell replication, multicolor clonal analysis was used in double-transgenic Myh6-MerCreMer::Rosa26fs-Confetti mice to record the proliferative strategies of individual cardiomyocytes of the apex relative to those of the base.

[6] = LV apex cardiomyocytes, post-P8, in vivo T3
[7] = LV basal cardiomyocytes, in vivo T3

SMILES | Ejection fraction (adult murine heart) | FW diastole (adult murine heart) | FW systole (adult murine heart) | Fractional shortening (adult murine heart) | IVS diastole (adult murine heart) | IVS systole (adult murine heart) | LV end-diastolic dimension (adult murine heart) | LV end-systolic dimension (adult murine heart) | LV mass (adult murine heart) | Cardiomyocyte numbers, (millions) [n] [1] | further results
COCCc1ccc(OCC(O)CNC(C)C)cc1 (stereo not drawn) [Metoprolol, metoprolol succinate] | 55.4 ± 1.8% | 0.92 ± 0.02 mm | 1.20 ± 0.03 mm | 23.4 ± 0.6% | 0.96 ± 0.02 mm | 1.29 ± 0.02 mm | 3.53 ± 0.07 mm | 2.71 ± 0.06 mm | 113 ± 2 mg | 2.44 ± 0.026 millions | –
N[C@@H](Cc1cc(I)c(Oc2ccc(O)c(I)c2)c(I)c1)C(=O)O [T3, 3,3′,5-triiodo-L-thyronine] | 55.7 ± 1.4^NS % | 0.87 ± 0.01^NS mm | 1.19 ± 0.03^NS mm | 24.8 ± 1.4^NS % | 0.94 ± 0.01^NS mm | 1.29 ± 0.02^NS mm | 3.60 ± 0.03^NS mm | 2.70 ± 0.05^NS mm | 110 ± 2^NS mg | 2.33 ± 0.039^NS millions | T3 increase of cyclins D1/A2/B1, more in apical than in basal cardiomyocytes (cyclins D1, A2 and B1; P8 hearts, LV apical vs basal cardiomyocytes): 2-5 fold; expression of cyclins D1, A2 and B1, higher in the LV apex than in the base (cyclins D1, A2 and B1; P8 mice, 40 h after in vivo T3 challenge, LV myocardium): 2.5-100 fold; T3 effect on cyclins in apical or basal cardiomyocytes (cyclins D1, A2 and B1; P16 cardiomyocytes): did not increase cyclins; T3 effect on cyclins D1/A2/B1 in LV apical and basal cardiomyocytes (cyclins D1, A2 and B1; neonatal hearts): increased cyclins D1/A2/B1 similarly in LV apical and basal cardiomyocytes; T3-stimulated expression of cyclins D1, A2 and B1, lower in basal cardiomyocytes (cyclins D1, A2 and B1; post-neonatal basal vs apical cardiomyocytes, 40 h after T3): 2-3 fold; number of cardiomyocytes in S phase (EdU+) (LV cardiomyocytes [2]; [6]): increased the number of cardiomyocytes in S phase; number of cardiomyocytes in mitosis (pH3+) (LV cardiomyocytes [2]; [6]): increased; S phase in LV basal cardiomyocytes (LV cardiomyocytes [2]; [7]): an increase in S phase was observed; mitosis in LV basal cardiomyocytes (LV cardiomyocytes [2]; [7]): did not enter mitosis; increase in ventricular cardiomyocyte numbers ([3]; T3 daily i.p. P7 to P9, counted at P12): ~18%; average replication rate ([3]; between P7 and P12): 3.6 %/day; fraction of nuclear ERK1/2 that remained phosphorylated, lower in LV basal cardiomyocytes ([4]; 24 h post-T3 treatment, P8 mice, basal vs apical): ~70%; MEK1/2 phosphorylation and nuclear translocation of ERK1/2 ([4]; P8 mice, single dose T3, 24 h, similarly in apical and basal cardiomyocytes): increased MEK1/2 phosphorylation; T3-stimulated expression of IGF-1/IGF-1R ([4]; post-neonatal basal vs apical cardiomyocytes): comparable in basal and apical cardiomyocytes; increase in frequency of monochromatic cardiomyocyte clusters in the LV apex relative to the base (LV cardiomyocytes [5]): ~6.5 fold; effect on body weight, ventricular cardiomyocyte numbers, LV mass or any measured LV dimension (adult murine heart; vehicle pretreated adult mice): did not significantly affect
